According to ChEMBL document CHEMBL1151411, “Plant Anticancer Agents. XIII. Constituents of Austrocedrus chilensis” (1983):
Converted amounts (≈) assume the structure as drawn.

System: KB
Assay: Cytotoxicity against human KB cells
Format: functional
Settings: read-out: ED50 (the source's name)

CC(C)c1cc2c(cc1O)[C@@]1(CO)CCCC(C)(C)[C@@H]1CC2 [PISIFEROL]
EC50: 100 µg/mL (≈ 331 µM)

CC(C)C1=CC2(O)CC[C@H]3C(C)(C)CCC[C@]3(CO)C2=CC1=O (some centres not stated)
EC50: 16 µg/mL (≈ 50.2 µM)
